Experimental data reported in patent publication US20240418707A1, “SELF-ORGANIZING NEURO-MUSCULAR JUNCTION CELL CULTURE MODEL” (Max-Delbrück-Centrum für Molekulare Medizin in der …, priority 2023, published 2024).
Entries after “also recorded” stand apart in the source; their conditions may differ.

How the values were obtained:
Format in all cases: cell-based, human
[1] = system: SMA type I hiPSC derived soNMJ cultures; assay: Muscle contraction analysis in SMA type I soNMJ model; conditions: day 50, 10 μM, compared to H1 control
Protocol: (§1) Three different regions of the same coverslip were recorded for contraction analysis using a Leica SP8 confocal microscope. Each region was recorded twice for 3 minutes using brightfield with 20× zoom. To quantify the muscle contraction, each movie was analyzed individually using MuscleMotion (an open source ImageJ Macro). A reference frame was automatically detected by MuscleMotion to measure the contraction as a variation in pixel over time. The results were then plotted in Prism8 (GraphPad).

NMJs of the soNMJ model = assay: Optogenetic (Channelrhodopsin) stimulation of neurons with muscle contraction readout
Protocol: For specifically stimulating neurons in the neuromuscular culture, cells were incubated with 1E+9 VG/mL AAV8-hSyn-hChR2 (H134R)-GFP for 48 h at day 50. After 3-4 weeks, the expression of ChR2 (H134R)-GFP was assessed using a confocal microscope. Cultures were transferred to the electrophysiology setup described above, and continuously superfused with HEPES-buffered extracellular solution at room temperature. Bright-field images of 2048×2048 were acquired at 10 Hz using an sCMOS camera (Photometrics Prime BSI Express) with 50 ms exposure time. Every 50 s, ChR2-expressing neurons were optically stimulated with three 5-ms flashes of 470 nm light at 10 Hz, with 10 mW/mm2 intensity. For the analysis, the muscle contraction recorded in brightfield was quantified using MuscleMotion (described below), plotted in Prism8 (GraphPad) and correlated to the light […] pulses.
as §1

[2] = system: skeletal muscles in the soNMJ model; assay: Contraction analysis of soNMJ model by live imaging; conditions: soNMJ model day 75, control hPSC lines (H1, XM001); 10 μM curare
Protocol: as §1

[3] = system: skeletal muscle fibers and neurons of the soNMJ model; assay: Calcium imaging with Fluo8 in neuromuscular cultures; conditions: day 75, Fluo8-AM, 10 μM curare
Protocol: Between day 50 and day 100, the cells were incubated at 37° C. with […] of the cell permeant calcium indicator Fluo-8 AM (Abcam). After 30 minutes of incubation, the cells were washed two times with culture medium (NB without phenol red) and left to recover for 15 min in the incubator prior to the start of any optical recording. During acquisition, the samples were kept at 37° C. with 5% CO2. Fluorescent time series images were acquired with a CSU-W1 spinning disk confocal microscope. The calcium transients were recorded for 2-3 minutes at 20 frames per second in three different conditions: without any treatment, with addition of […] Acetylcholine (Sigma Aldrich) and with addition of 10 μM Curare (Sigma Aldrich).
Analysis of the calcium activity was performed by measuring the variation of fluorescence intensity in each ROI with ImageJ. ROIs were detected manually, and neurons and muscle cells could be distinguished by morphology. The variation of fluorescence intensity for each individual ROI was then plotted in Prism 8 (GraphPad).

Substance: curare
- muscle contraction in SMA type I soNMJ [1]: did not respond; also recorded: failed to stop spontaneous muscle activity
- muscle contraction upon optogenetic stimulation of ChR2-GFP+ neurons (NMJs of the soNMJ model; day 75, 470 nm light pulse, 10 μM curare): inhibition of muscle contraction even upon optogenetic stimulation; also recorded: blocked the optogenetic stimulation of the skeletal muscles
- muscle contraction response to blue light stimulation after washout (NMJs of the soNMJ model; day 75, after washing out curare): restored by washing out curare
- skeletal muscle contraction [2]: blocked the contraction of the skeletal muscles
- calcium activity / firing of the neurons [3]: without affecting the firing of the neurons
- calcium activity in skeletal muscle fibers [3]: blocked the calcium activity in the skeletal muscle fibers; also recorded: abolished the calcium activity in the skeletal muscles
